{
  "source": "patent US6518014B1",
  "about": "“Hepadnavirus cores” (priority 1996, dated 2003)",
  "key": {"hepadnavirus polymerase [1]": {"biological_target": "T1, hepadnavirus polymerase (Hepatitis B virus genotype D subtype ayw, UniProt P03156)", "T1 construct": "made in house; host or cells: Spodoptera frugiperda SF9 cells infected with recombinant baculoviruses (pVL1393-derived)", "T1 sequence (P03156 whole entry)": "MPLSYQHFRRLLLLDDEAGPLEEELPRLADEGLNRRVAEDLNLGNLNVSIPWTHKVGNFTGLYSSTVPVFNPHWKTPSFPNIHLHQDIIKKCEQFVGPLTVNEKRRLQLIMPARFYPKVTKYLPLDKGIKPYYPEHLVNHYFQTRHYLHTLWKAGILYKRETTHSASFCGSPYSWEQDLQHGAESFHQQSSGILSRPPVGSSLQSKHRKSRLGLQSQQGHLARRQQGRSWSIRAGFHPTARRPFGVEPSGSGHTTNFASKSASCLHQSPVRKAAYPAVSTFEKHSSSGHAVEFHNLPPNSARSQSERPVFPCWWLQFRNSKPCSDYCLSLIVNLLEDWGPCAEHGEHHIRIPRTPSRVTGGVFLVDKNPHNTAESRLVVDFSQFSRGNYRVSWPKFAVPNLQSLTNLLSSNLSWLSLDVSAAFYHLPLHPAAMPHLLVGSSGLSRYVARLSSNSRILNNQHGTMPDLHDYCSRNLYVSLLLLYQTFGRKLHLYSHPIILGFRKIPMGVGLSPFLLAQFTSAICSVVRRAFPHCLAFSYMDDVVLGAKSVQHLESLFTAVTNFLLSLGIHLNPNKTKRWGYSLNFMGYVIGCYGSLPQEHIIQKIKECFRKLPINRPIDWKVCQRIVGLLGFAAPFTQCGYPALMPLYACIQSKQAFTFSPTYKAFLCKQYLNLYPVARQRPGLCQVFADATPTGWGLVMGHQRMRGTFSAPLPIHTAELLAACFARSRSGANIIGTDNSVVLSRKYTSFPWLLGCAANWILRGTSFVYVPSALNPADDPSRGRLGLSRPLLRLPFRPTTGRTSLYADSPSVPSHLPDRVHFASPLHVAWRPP", "assay": "In vitro polymerase activity of isolated core particles in the presence of Actinomycin D", "assay_type": "biochemical", "details": "100 μg/ml Actinomycin D; (−) strand synthesis from an RNA template", "description": "This observation further confirms that the primary activity observed is the (−) strand synthesis from an RNA template. Site-directed mutagenesis has been used to change an tyr-met-asp-asp (SEQ ID NO:16) sequence in the HBV polymerase active site to a tyr-met-his-ala (SEQ ID NO:17) sequence, a mutation that has been previously shown to destroy polymerase activity. See, for example, Seifer and Strandring, Intervirology 38:295-303,1995; Wang & Seeger, Cell 71:663-670, 1992. For an analogous active site mutation, see Radziwill et al., J. Virol. 64:613-620,1990. When this mutant is used in the methods of the invention to create core particles, the core particles lack polymerase activity. This observation confirms that it is indeed hepadnavirus polymerase activity that is being observed in the core particles of the invention.\nA 96 well plate was prepared with wells containing either various dilutions of test sample containing a prospective bioactive agent, a positive control, a known hepadnavirus polymerase inhibitor, or an EDTA sample for which no polymerase activity should be detected and which thus indicates, after the assay processing, non-specific, background radioactivity. The plate has eight rows of wells, A through H, and twelve columns of wells, 1 through 12. […]\nThe background radioactivity determined from column 12, wells E through H, was subtracted from all of the remaining values. […]"}, "hepadnavirus polymerase [2]": {"biological_target": "T1, hepadnavirus polymerase", "assay": "Endogenous polymerase assay (EPA) with size analysis of endogenously labeled DNA from nucleocapsids, actinomycin D comparative sample", "assay_type": "biochemical", "details": "80-100 μg per ml actinomycin D in comparative sample", "method": "The beads were resuspended in 50 μl EPA reaction mix (50 mM Tris-HCl, pH 7.4, 75 mM NH4Cl, 1 mM EDTA, 20 mM MgCl2, 0.1 mM β-mercaptoethanol, 0.5% Tween 20, 50 μM dNTP mix (Ultrapure, Pharmacia, Uppsala, Sweden)), and the resulting suspension was incubated at 37° C. for 6 h.\nThe beads were washed once with 800 μl IP wash buffer (50 mM Tris-HCl, pH 7.4, 150 mM NaCl, 5 mM EDTA, 1% Triton-X 100, 0.02% SDS) and resuspended in 50 μl TNE (10 mM Tris-HCl, pH 7.4, 150 mM NaCl, 1 mM EDTA) containing 1% SDS and 10 mM dithiothreitol. The beads were then heated to boiling temperature (100 C) for 7 min to disintegrate the capsids, and the supernates isolated by centrifugation and transferred to microfuge cups, with the supemates from […] parallel reactions combined in each microfuge cup. […]\nThe synthesis that is actinomycin D sensitive is measured with the above-described EPA assay where 80-100 μg per ml of actinomycin D are added in a comparative sample.\nSF9 cells were harvested 90 hours postinfection with recombinant viruses (a) BV-ECPE, (b) BV-EC+BV-PDE, (c) BV-EC and (d) BV-PDE. […] Immunoprecipitated core particles were subjected to EPA as described above, and deproteinized nucleic acids isolated from the assay samples were analyzed on a 1% agarose gel, and visualized by autoradiography. […]"}},
  "note": "*1 amine or outer side, *2 acyl side, *3 side chain or, on linkers, in order; H or OH if unused. Where a SMILES comes first, the peptide text is derived from it. Bridges are numbered along the chain shown (N, C = ends). Roman numbers before positions name the chains, in order. [ ]: non-standard residue; d: D form. Actinocin(9to1) = Cc1c2oc3c(C)ccc(C(=O)[*:1])c3nc-2c(C(=O)[*:2])c(N)c1=O; NMeV = CN[C@H](C(=O)O)C(C)C; Sar = CNCC(=O)O",
  "data": [
    {"smiles": "Cc1c2oc3c(C)ccc(C(=O)N[C@@H]4C(=O)N[C@H](C(C)C)C(=O)N5CCC[C@H]5C(=O)N(C)CC(=O)N(C)[C@@H](C(C)C)C(=O)O[C@@H]4C)c3nc-2c(C(=O)N[C@@H]2C(=O)N[C@H](C(C)C)C(=O)N3CCC[C@H]3C(=O)N(C)CC(=O)N(C)[C@@H](C(C)C)C(=O)O[C@@H]2C)c(N)c1=O", "note": "[Actinomycin D] (I: T[dV]P[Sar][NMeV] / II: T[dV]P[Sar][NMeV]; ester I:1-I:C, II:1-II:C; linker I:N-II:N via Actinocin(9to1))", "values": [
      {"measurement": "polymerase activity exhibited by core particles in the presence of Actinomycin D", "setting": "hepadnavirus polymerase [1]", "result": "active"},
      {"measurement": "actinomycin D sensitivity of EPA product nucleic acids, trans cores", "setting": "hepadnavirus polymerase [2]; BV-EC+BV-PDE (trans) cores from SF9 cells", "result": "not the trans products"},
      {"measurement": "actinomycin D sensitivity of EPA product nucleic acids, cis cores", "setting": "hepadnavirus polymerase [2]; BV-ECPE (cis) cores from SF9 cells", "result": "mostly actinomycin D sensitive"}
    ]}
  ]
}
